Assay results reported in ChEMBL document CHEMBL1201862, “PubChem BioAssay data set” (2004).
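Cells were grown in 96-well plates and exposed to each compound for 48 hours at five concentrations; endpoints were interpolated linearly between bracketing concentrations, or set to the highest concentration if not reached. GI50 marks 50% less growth.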 Calls of active or inactive are those of the source. No stated cut-off is given here; in the data, active = GI50 up to about 1.1 µM and inactive = higher.

Experiments:
Test in all cases: NCI-60 cell line screen, 48 h
[1] = system: SNB-75
[2] = system: SNB-78
[3] = system: SR
[4] = system: UACC-62
[5] = system: HT-29
[6] = system: Malme-3M
[7] = system: A549
[8] = system: OVCAR-8
[9] = system: OVCAR-3
[10] = system: M14
[11] = system: MOLT-4
[12] = system: LOX IMVI
[13] = system: OVCAR-4
[14] = system: HCT-116
[15] = system: SNB-19
[16] = system: M19-MEL
[17] = system: DMS-273
[18] = system: DLD-1
[19] = system: SK-MEL-5
[20] = system: HOP-92

Measured: GI50

C=CCN1C(=O)NC(=O)/C(=C/c2c3ccccc3cc3ccccc23)C1=O
inactive: [1] 21.3 µM | [2] 21.1 µM | [3] 23.9 µM | [4] 18 µM | [5] 20.7 µM | [6] 18.6 µM | [7] 21 µM | [8] 22.4 µM | [9] 18.9 µM | [10] 16.2 µM | [11] 17.9 µM | [12] 27.6 µM | [13] 22.2 µM | [14] 17.1 µM | [15] 21.8 µM | [16] 34.4 µM | [17] 20.8 µM | [18] 18.9 µM | [19] > 10 µM | [20] 20.4 µM

CN1Cc2ccccc2C2(COc3ccccc3C2=O)C1 (stereo not given)
inactive: [1] > 100 µM | [2] > 100 µM | [3] 31.8 µM | [4] > 100 µM | [5] 48 µM | [6] > 100 µM | [7] > 100 µM | [8] > 100 µM | [9] 77.8 µM | [10] > 100 µM | [11] 40.8 µM | [12] > 100 µM | [13] 92.3 µM | [14] > 100 µM | [15] > 100 µM | [16] > 100 µM | [17] > 100 µM | [18] 92.9 µM | [19] 56.2 µM | [20] 20 µM
